Assay results published in patent publication US10544151B2, “Compounds and uses thereof” (Kala Pharmaceuticals, Inc., priority 2013, dated 2020).

Legend:
[1] = Physical and chemical stability of I-2 solutions at room temperature; format: physicochemical; settings: F127 (0.5%), 20 mM Tris (pH 8)
Description: Solutions of I-2 were formulated with F127 or Tween 80, and under a range of pH values. Briefly, I-2 was first completely solubilized using an acidic solution (0.1 N HCl) at a high concentration of ˜5% (wiv). The final formulation was diluted to a solution consisting of 0.5% (wiv) I-2 into buffered solution containing F127 or Tween 80 as described in Table 5. Following dilution, the pH of the formulations was measured using pH indicator strips (PEHANON) and confirmed to be within expected range (±0.5 units of target pH).
Physical and chemical stability of the solutions at room temperature (20-25° C.) were assessed after 7-10 days (tfinal). Physical instability in a solution can manifest as the precipitation and sedimentation of the drug of interest and excipients over time. To assess physical stability, the formulations at tfinal were first filtered through a 300 kDa modified polyethersulfone filter membrane (Nanosep) to remove any precipitate in the solution. The concentration of I-2 in the filtrates was then measured and compared to that at t=0. The purity of I-2 in the unfiltered solution was also evaluated at tfinal, to further confirm chemical stability. This parameter is defined by the area under the signal peak that is attributed to compound I-2 as a percentage of all peaks reported by in the sample by HPLC (% peak area).

[2] = Draize-Ocular Irritation assessment; format: in vivo, Dutch-belted rabbits; settings: topical I-2 solution formulations, during PK studies

physical stability of solution [1]: major physical instability
SMILES: Cc1cc(C(=O)Nc2cc(Oc3ccc4nc(NC(=O)CN5CC[C@H](N(C)C)C5)cn4n3)ccc2C)n(C)n1 [Compound I-2]
Draize-Ocular Irritation [2]: no irritation
